The values that follow come from PubChem BioAssay AID1918945 (Molecular Pharmacology Branch, DTP, NCI, 2023).

The test system of the assay is 883617-216-R-J1-PDC complex spheroid viability. Put plainly: Anticancer human tumor 883617-216-R-J1-PDC patient-derived bladder carcinoma cell line growth inhibition. The conditions noted are these: for viability, T/C: stronger effect = lower value. An excerpt:
Multicellular complex tumor spheroid response to LSD1 Inhibitor Iadademstat in combination with a variety of drugs and investigational agents in selected tumor cell lines
The current study was undertaken to assess response to LSD1 inhibitors in combination with standard-of-care drugs and investigational agents in solid tumor complex spheroid models as well as in the K-562 leukemia. Complex spheroids include a stromal component modeled by human endothelial cells (HUVEC) and fibroblasts modeled by human mesenchymal stem cells (MSCs). The concentration ranges selected for each drug and investigational agent were based upon clinically achievable concentrations if the clinical Cmax of the agent was known.
Compounds. The drugs and investigational agents used in this study are listed on Table 1. All of the agents used, including staurosporine (NSC755774) and gemcitabine (NSC613327), were obtained from the Developmental Therapeutics Program, NCI. FDA-approved anticancer drugs are available from the NCI at http://dtp.nci.nih.gov/branches/dscb/oncology_drugset_explanation.html. Drugs and investigational agents were >95% pure by proton nuclear magnetic resonance (NMR) and liquid chromatography/mass spectrometry (LC/MS). Stock solutions were prepared at 400x in DMSO, stored at -70 degrees C, and diluted in fresh medium prior to their use. The final concentration of DMSO in cell culture wells never exceeded 0.25% (v/v). The FDA-approved anticancer drug set is available from the Developmental Therapeutics Program at https://dtp.cancer.gov/organization/dscb/obtaining/available_plates.htm. All drugs and investigational agents were tested over a range starting from a high concentration at or near the clinical Cmax and decreasing in half-log increments. If the clinical Cmax for an agent had not been determined, the highest concentration tested was 10 microM.
Cell Lines. The patient-derived cancer cell (PDC) lines: 292921-168-R-J2-PDC, K24384-001-R-PDC, and 521955-158-R2-J5-PDC pancreatic carcinomas, 556581-035-R-J1 ovarian carcinoma, 324938-238-R-J1-PDC, 855422-203-R-J1-PDC and 883617-216-R-J1-PDC urothelial bladder carcinomas, 743489-274-T-PDC renal cell carcinoma, 138582-R-J1 Merkel cell tumor, K60290-347-R-J1 and K57222-313-R-J1-PDC glioblastomas, 653999-131-R-J2-PDC, LG0703-F948-PDC, and 349418-098-R-PDC non-small cell lung carcinomas, 885512-296-R-J2-PDC, 171881-019-R-J1-PDC breast carcinomas and 186277-243-T-J2-PDC and 233499-124-R-J2-PDC colon carcinomas were obtained from the NCI Patient-Derived Models Repository (PDMR, https://pdmr.cancer.gov). The established cell lines NCI/ADR-RES (RRID:CVCL_14520 and OVCAR-5 (RRID:CVCL_1628) ovarian carcinomas, 786-O (RRID:CVCL_1051) and A498 (RRID:CVCL_A498) renal cell carcinoma, NCI-H211 (ATCC, cat. CRL-5824; RRID:CVCL_1529), NCI-H196 (ATCC, cat. CRL-5823, RRID:CVCL_1509), SW 1271 (ATCC, cat. CRL-2177, RRID:CVCL_1716) and NCI-H1876 (ATCC, cat. CRL-5902, RRID:CVCL_1503) small cell lung carcinomas, MDA-MB-231 (RRID:CVCL_0062) and MDA-MB-468 (RRID:CVCL_0419)breast carcinomas (10-12). Pooled donor human umbilical vein endothelial cells (HUVEC, Lonza, cat. CC-2519) and human mesenchymal stem cells (hMSC, Lonza, cat. PT-2501) were purchased from Lonza (Walkersville, MD).
Cell Culture. All cells were maintained in an incubator at 37 degrees C and 5% CO2 with 95% humidity. The PDC lines were cultured according to standard operating procedures established by the NCI PDMR (https://pdmr.cancer.gov). Briefly all PDCs were thawed and cultured in Matrigel-coated flasks prepared with a working solution of 1X Ham's F-12 nutrient mix, without supplementation (Invitrogen, Waltham, MA, cat. 11765054), 100 U/mL penicillin-streptomycin (Invitrogen, cat. 15140122), and 2.5% Matrigel (Corning Inc., Corning, NY, cat. 354248) for the first three passages. […]

“And” between values parts separate entries of the source, which are not always exact repeats. Equal values may be shown once.
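Note: exposure lasted seven days after three days of spheroid growth.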
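Throughout, for viability, T/C: 100% = DMSO vehicle control luminescence.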

The term viability, T/C denotes the result in the treated group divided by that in the control group, in per cent. A word on the IC50: it is the midpoint of a concentration-inhibition curve. Turning to `COc1cc(C2c3cc4c(cc3C(OC3OC5COC(C)OC5C(O)C3O)C3COC(=O)C23)OCO4)cc(OC)c1O` (stereo unspecified), the viability, T/C (compound 0.00949 µM) is 94.6% and 80.4%; the viability, T/C (compound 0.03 µM) was 99.6% and 65.2%; the viability, T/C (compound 0.0949 µM) is 64.6% and 46.6%; the viability, T/C (compound 0.3 µM) was 45.4% and 38.4%; the viability, T/C (compound 0.949 µM) was 44.4% and 41.1%; the viability, T/C (compound 3 µM) was 35.4% and 29.4%. In addition, the IC50 (curve of compound) is 198 nM and 87.6 nM.

In the case of `CC1COCCN1c1cc(C2(S(C)(=N)=O)CC2)nc(-c2ccnc3[nH]ccc23)n1` (stereo unspecified), the viability, T/C (compound 0.0316 µM) is 103% and 94.9%; the viability, T/C (compound 0.1 µM) is 98.4% and 71.9%; the viability, T/C (compound 0.316 µM) was 65.3% and 47.5%; the viability, T/C (compound 1 µM) is 44.2% and 42.4%; the viability, T/C (compound 3.16 µM) was 39.6% and 31.8%; the viability, T/C (compound 10 µM) was 28.1% and 23.8%. In addition, the IC50 (curve of compound) is 721 nM and 377 nM.

With `Cn1ncnc1C1c2n[nH]c(=O)c3cc(F)cc(c23)NC1c1ccc(F)cc1` (stereo unspecified) + NC1CC1c1ccc(-c2cccc(O)c2)cc1, the IC50 runs as follows: (curve of first compound, second compound 0.1 µM) 15.1 nM; (curve of first compound, second compound 0.316 µM) 16.2 nM; (curve of first compound, second compound 1 µM) 12.4 nM; (curve of first compound, second compound 3.16 µM) 8.5 nM; (curve of first compound, second compound 10 µM) 6.41 nM. In addition, the viability, T/C (second compound 0.1 µM, first compound 0.000316 µM) was 105%; the viability, T/C (second compound 0.1 µM, first compound 0.001 µM) was 95.4%; the viability, T/C (second compound 0.1 µM, first compound 0.00316 µM) was 76.4%; the viability, T/C (second compound 0.1 µM, first compound 0.01 µM) was 53%; the viability, T/C (second compound 0.1 µM, first compound 0.0316 µM) was 44.1%; the viability, T/C (second compound 0.1 µM, first compound 0.1 µM) was 37.8%. In addition, the viability, T/C by setting is: (second compound 0.316 µM, first compound 0.000316 µM) 116%; (second compound 0.316 µM, first compound 0.001 µM) 103%; (second compound 0.316 µM, first compound 0.00316 µM) 73%; (second compound 0.316 µM, first compound 0.01 µM) 54.3%; (second compound 0.316 µM, first compound 0.0316 µM) 47.1%; (second compound 0.316 µM, first compound 0.1 µM) 40.8%. Also, the viability, T/C is, setting by setting: (second compound 1 µM, first compound 0.000316 µM) 118%; (second compound 1 µM, first compound 0.001 µM) 88.9%; (second compound 1 µM, first compound 0.00316 µM) 68.6%; (second compound 1 µM, first compound 0.01 µM) 50.2%; (second compound 1 µM, first compound 0.0316 µM) 43%; (second compound 1 µM, first compound 0.1 µM) 37.8%. Besides, the viability, T/C (second compound 3.16 µM, first compound 0.000316 µM) was 92.4%; the viability, T/C (second compound 3.16 µM, first compound 0.001 µM) was 93%; the viability, T/C (second compound 3.16 µM, first compound 0.00316 µM) is 62.6%; the viability, T/C (second compound 3.16 µM, first compound 0.01 µM) is 50.4%; the viability, T/C (second compound 3.16 µM, first compound 0.0316 µM) was 42.2%; the viability, T/C (second compound 3.16 µM, first compound 0.1 µM) is 33.9%. The viability, T/C (second compound 10 µM, first compound 0.000316 µM) is 83.5%; the viability, T/C (second compound 10 µM, first compound 0.001 µM) was 64.2%; the viability, T/C (second compound 10 µM, first compound 0.00316 µM) was 58.1%; the viability, T/C (second compound 10 µM, first compound 0.01 µM) is 44.9%; the viability, T/C (second compound 10 µM, first compound 0.0316 µM) is 40.9%; the viability, T/C (second compound 10 µM, first compound 0.1 µM) was 32.3%.

Take `COc1ccc([C@@H](O)c2cc(-c3ncnc4cc(N5CCOCC5)ccc34)c(F)cc2Cl)nn1`: the viability, T/C runs as follows: (compound 0.0316 µM) 91.2% and 99.6%; (compound 0.1 µM) 89.8% and 86.9%; (compound 0.316 µM) 67.2% and 52.7%; (compound 1 µM) 48.6% and 41.2%; (compound 3.16 µM) 37.1% and 26.7%; (compound 10 µM) 22.2% and 14.9%. The IC50 (curve of compound) was 1000 nM and 524 nM.
